Source: US10308650B2, “Pesticidally active tetracyclic derivatives with sulfur containing substituents” (Syngenta Participations AG, priority 2014, dated 2019)
Like-named read-outs stand apart in the source and are kept apart here.

How the values were obtained:
Type in all cases: in vivo
[1] = tested on: Spodoptera littoralis (Egyptian Cotton Leaf Worm); test: Activity against Spodoptera littoralis (cotton leaf discs, spray); conditions: foliar, 72 h, read-out: control (mortality, anti-feeding effect, growth inhibition)
Method: Example B9: Activity Against Spodoptera littoralis (Egyptian Cotton Leaf Worm)
Cotton leaf discs were placed onto agar in 24-well microtiter plates and sprayed with aqueous test solutions prepared from 10,000 ppm DMSO stock solutions. After drying the leaf discs were infested with five L1 larvae. The samples were assessed for mortality, anti-feeding effect, and growth inhibition in comparison to untreated samples 3 days after infestation. Control of Spodoptera littoralis by a test sample is given when at least one of the categories mortality, anti-feedant effect, and growth inhibition is higher than the untreated sample.

[2] = tested on: Tetranychus urticae (Two-Spotted Spider Mite); test: Activity against Tetranychus urticae: feeding/contact activity; conditions: foliar, 192 h, application rate of 200 ppm, bean leaf discs, mixed population (mobile stages), 8 days after infestation
Method: Example B11: Activity Against Tetranychus urticae (Two-Spotted Spider Mite): Feeding/Contact Activity
Bean leaf discs on agar in 24-well microtiter plates were sprayed with aqueous test solutions prepared from 10,000 ppm DMSO stock solutions. After drying the leaf discs were infested with a mite population of mixed ages. The samples were assessed for mortality on mixed population (mobile stages) 8 days after infestation.

[3] = tested on: Spodoptera littoralis (Egyptian Cotton Leaf Worm); test: Activity against Spodoptera littoralis (lettuce, uptake by the roots from agar); conditions: 144 h, read-out: effect in at least one of the three categories (mortality, anti-feeding, or growth inhibition); for percent effect (mortality, anti-feeding or growth inhibition) at 12.5 ppm: test rate of 12.5 ppm, lettuce grown on treated agar, Spodoptera eggs, 6 days after infestation
From the text: Example B10: Activity Against Spodoptera littoralis (Egyptian Cotton Leaf Worm)
Test compounds were applied by pipette from 10,000 ppm DMSO stock solutions into 24-well plates and mixed with agar. Lettuce seeds were placed onto the agar and the multi well plate was closed by another plate which contained also agar. After 7 days the compound was absorbed by the roots and the lettuce grew into the lid plate. The lettuce leaves were then cut off into the lid plate. Spodoptera eggs were pipetted through a plastic stencil onto a humid gel blotting paper and the lid plate was closed with it. The samples were assessed for mortality, anti-feedant effect and growth inhibition in comparison to untreated samples 6 days after infestation.

[4] = tested on: Aedes aegypti (Yellow Fever Mosquito); test: Activity against Aedes aegypti; conditions: 200 ppm in ethanol, dry deposit in 12 well plates, adult females, after 48 h and/or 24 h
Method: Example B13: Activity Against Aedes aegypti (Yellow Fever Mosquito)
Test solutions, at an application rate of 200 ppm in ethanol, were applied to 12 well tissue culture plates. Once the deposits were dry, five, two to five day old adult female Aedes aegypti were added to each well, and sustained with a 10% sucrose solution in a cotton wool plug. Assessment of knockdown was made one hour after introduction, and mortality was assessed at 24 and 48 hours after introduction.

[5] = tested on: Diabrotica balteata (Corn Root Worm); test: Activity against Diabrotica balteata; conditions: 96 h, read-out: effect in at least one of the two categories (mortality or growth inhibition); for percent effect (mortality or growth inhibition) at 200 ppm: application rate of 200 ppm, maize sprouts, L2 larvae, 4 days after infestation
Method: Example B2: Activity Against Diabrotica balteata (Corn Root Worm)
Maize sprouts placed onto an agar layer in 24-well microtiter plates were treated with aqueous test solutions prepared from 10,000 ppm DMSO stock solutions by spraying. After drying, the plates were infested with L2 larvae (6 to 10 per well). The samples were assessed for mortality and growth inhibition in comparison to untreated samples 4 days after infestation.

[6] = tested on: Myzus persicae (Green Peach Aphid); test: Activity against Myzus persicae: intrinsic activity; conditions: 120 h
From the text: Example B7: Activity Against Myzus persicae (Green Peach Aphid). Intrinsic Activity
Test compounds prepared from 10,000 ppm DMSO stock solutions were applied by pipette into 24-well microtiter plates and mixed with sucrose solution. The plates were closed with a stretched Parafilm. A plastic stencil with 24 holes was placed onto the plate and infested pea seedlings were placed directly on the Parafilm. The infested plate was closed with a gel blotting paper and another plastic stencil and then turned upside down. The samples were assessed for mortality 5 days after infestation.

[7] = tested on: Euschistus heros (Neotropical Brown Stink Bug); test: Activity against Euschistus heros; conditions: 120 h, read-out: effect in at least one of the two categories (mortality or growth inhibition); for percent effect (mortality or growth inhibition) at 200 ppm: application rate of 200 ppm, soybean leaves, N2 nymphs, 5 days after infestation
Method: Example B3: Activity Against Euschistus heros (Neotropical Brown Stink Bug)
Soybean leaves on agar in 24-well microtiter plates were sprayed with aqueous test solutions prepared from 10,000 ppm DMSO stock solutions. After drying the leaves were infested with N2 nymphs. The samples were assessed for mortality and growth inhibition in comparison to untreated samples 5 days after infestation.

[8] = tested on: Plutella xylostella (Diamond Back Moth); test: Activity against Plutella xylostella; conditions: 120 h, read-out: effect in at least one of the two categories (mortality or growth inhibition); for percent effect (mortality or growth inhibition) at 200 ppm: application rate of 200 ppm, artificial diet, L2 larvae, 5 days after infestation
Method: Example B8: Activity Against Plutella xylostella (Diamond Back Moth)
24-well microtiter plates with artificial diet were treated with aqueous test solutions prepared from 10,000 ppm DMSO stock solutions by pipetting. After drying, the plates were infested with L2 larvae (10 to 15 per well). The samples were assessed for mortality and growth inhibition in comparison to untreated samples 5 days after infestation.

[9] = tested on: Myzus persicae (Green Peach Aphid); test: Activity against Myzus persicae: feeding/contact activity; conditions: foliar, 144 h
Method: Example B5: Activity Against Myzus persicae (Green Peach Aphid): Feeding/Contact Activity
Sunflower leaf discs were placed onto agar in a 24-well microtiter plate and sprayed with aqueous test solutions prepared from 10,000 ppm DMSO stock solutions. After drying, the leaf discs were infested with an aphid population of mixed ages. The samples were assessed for mortality 6 days after infestation.

[10] = tested on: Myzus persicae (Green Peach Aphid); test: Activity against Myzus persicae: systemic activity; conditions: 144 h
Method: Example B6: Activity Against Myzus persicae (Green Peach Aphid). Systemic Activity
Roots of pea seedlings infested with an aphid population of mixed ages were placed directly into aqueous test solutions prepared from 10,000 DMSO stock solutions. The samples were assessed for mortality 6 days after placing seedlings into test solutions.

[11] = tested on: Frankliniella occidentalis (Western Flower Thrips); test: Activity against Frankliniella occidentalis: feeding/contact activity; conditions: foliar, 168 h, application rate of 200 ppm, sunflower leaf discs, population of mixed ages, 7 days after infestation
Method: Example B4: Activity Against Frankliniella occidentalis (Western Flower Thrips): Feeding/Contact Activity
Sunflower leaf discs were placed on agar in 24-well microtiter plates and sprayed with aqueous test solutions prepared from 10,000 DMSO stock solutions. After drying the leaf discs were infested with a Frankliniella population of mixed ages. The samples were assessed for mortality 7 days after infestation.

[12] = tested on: Bemisia tabaci (Cotton White Fly); test: Activity against Bemisia tabaci: feeding/contact activity; conditions: foliar, 144 h, application rate of 200 ppm, cotton leaf discs, adult white flies, 6 days after incubation
Method: Example B1: Activity Against Bemisia tabaci (Cotton White Fly): Feeding/Contact Activity
Cotton leaf discs were placed on agar in 24-well microtiter plates and sprayed with aqueous test solutions prepared from 10,000 ppm DMSO stock solutions. After drying the leaf discs were infested with adult white flies. The samples were checked for mortality 6 days after incubation.

[13] = application rate of 200 ppm, cotton leaf discs, L1 larvae, 3 days after infestation
[14] = application rate of 200 ppm, sunflower leaf discs, aphid population of mixed ages, 6 days after infestation, read-out: mortality
[15] = test rate of 24 ppm, roots of infested pea seedlings in test solution, 6 days, read-out: mortality

CCS(=O)(=O)c1cc2nc(C(F)(F)F)[nH]c2cc1-c1nc2cc(C(F)(F)F)ncc2n1C [Compound A7, 2-[6-ethylsulfonyl-2-(trifluoromethyl)-3H-benzimidazol-5-yl]-3-methyl-6-(trifluoromethyl)imidazo[4,5-c]pyridine]
≥ 80%: mortality at 200 ppm [1, 13] | mortality at 200 ppm [2]

CCS(=O)(=O)c1cc2ccccc2nc1-c1nc2cc(C(F)(F)F)ncc2n1C [Compound A22, 3-ethylsulfonyl-2-[3-methyl-6-(trifluoromethyl)imidazo[4,5-c]pyridin-2-yl]quinolone]
≥ 80%: percent control (mortality, anti-feedant effect or growth inhibition) at 12.5 ppm [3] | pest or weed control at 200 ppm [4] | percent control (mortality or growth inhibition) at 200 ppm [5] | mortality at 12 ppm [6] | percent control (mortality or growth inhibition) at 200 ppm ([7]; in Glycine max) | mortality at 200 ppm [1] | percent control (mortality or growth inhibition) at 200 ppm [8] | mortality at 200 ppm [9] | mortality at 24 ppm [10]

CCS(=O)(=O)c1cc2nc(C(F)(F)F)sc2cc1-c1nc2cc(C(F)(F)F)ncc2n1C [Compound A31, 5-ethylsulfonyl-6-[3-methyl-6-(trifluoromethyl)imidazo[4,5-c]pyridin-2-yl]-2-(trifluoromethyl)-1,3-benzothiazole]
≥ 80%: percent effect (mortality, anti-feeding or growth inhibition) at 12.5 ppm [3] | pest or weed control at 200 ppm [4] | percent effect (mortality or growth inhibition) at 200 ppm [5] | percent effect (mortality or growth inhibition) at 200 ppm [7] | mortality at 200 ppm [1, 13] | percent effect (mortality or growth inhibition) at 200 ppm [8] | mortality at 200 ppm [9, 14] | mortality at 200 ppm [11] | mortality at 200 ppm [12]

CCS(=O)(=O)c1cc2c(nc1-c1nc3cc(C(F)(F)F)ncc3n1C)nc(C(F)(F)F)n2C [Compound A33, 6-ethylsulfonyl-1-methyl-5-[3-methyl-6-(trifluoromethyl)imidazo[4,5-c]pyridin-2-yl]-2-(trifluoromethyl)imidazo[4,5-b]pyridine]
≥ 80%: percent effect (mortality or growth inhibition) at 200 ppm [5] | percent effect (mortality or growth inhibition) at 200 ppm [7] | mortality at 200 ppm [1, 13] | percent effect (mortality or growth inhibition) at 200 ppm [8] | mortality at 200 ppm [9, 14] | mortality at 24 ppm [10, 15] | mortality at 200 ppm [11] | mortality at 200 ppm [12]

CCS(=O)(=O)c1cc2nn(C)nc2cc1-c1nc2cc(C(F)(F)F)ncc2n1C [Compound A37, 5-ethylsulfonyl-2-methyl-6-[3-methyl-6-(trifluoromethyl)imidazo[4,5-c]pyridin-2-yl]benzotriazole]
≥ 80%: percent effect (mortality or growth inhibition) at 200 ppm [5] | percent effect (mortality or growth inhibition) at 200 ppm [7] | mortality at 200 ppm [1, 13] | percent effect (mortality or growth inhibition) at 200 ppm [8] | mortality at 200 ppm [9, 14] | mortality at 24 ppm [10, 15] | mortality at 200 ppm [11]

CCS(=O)(=O)c1cc2c(C3CC3)cccc2nc1-c1nc2cc(C(F)(F)F)ncc2n1C [Compound A43, 5-cyclopropyl-3-ethylsulfonyl-2-[3-methyl-6-(trifluoromethyl)imidazo[4,5-c]pyridin-2-yl]quinoline]
≥ 80%: percent effect (mortality, anti-feeding or growth inhibition) at 12.5 ppm [3] | percent effect (mortality or growth inhibition) at 200 ppm [5] | percent effect (mortality or growth inhibition) at 200 ppm [7] | mortality at 200 ppm [1, 13] | percent effect (mortality or growth inhibition) at 200 ppm [8] | mortality at 200 ppm [9, 14] | mortality at 200 ppm [2]

CCSc1cc2c(nc1-c1nc3cc(C(F)(F)F)ncc3n1C)CC(C)(C)O2 [Compound A58, 6-ethylsulfanyl-2,2-dimethyl-5-[3-methyl-6-(trifluoromethyl)imidazo[4,5-c]pyridin-2-yl]-3H-furo[3,2-b]pyridine]
≥ 80%: percent effect (mortality or growth inhibition) at 200 ppm [5] | mortality at 12 ppm ([6]; test rate of 12 ppm, sucrose solution under Parafilm, 5 days after infestation, read-out: mortality) | percent effect (mortality or growth inhibition) at 200 ppm [7] | mortality at 200 ppm [1, 13] | percent effect (mortality or growth inhibition) at 200 ppm [8] | mortality at 200 ppm [9, 14] | mortality at 200 ppm [12]
